Patent publication US20220193120A1, “MOLECULAR HYDROGEN-CONTAINING COMPOSITION FOR MAINTAINING LUNG FUNCTION IN HUMAN LUNG CANCER AND/OR IMPROVING REDUCTION IN LUNG FUNCTION ATTRIBUTED TO HUMAN LUNG CANCER” (MiZ Company Limited, priority 2020, published 2022)
Read-outs that look alike come from different tables or passages of the source.

Columns and labels:
[1] = room temperature, normal pressure; also printed as 1.6 mg/L; cited from earlier work
[2] = test system: Lewis Lung Carcinoma; conditions: inhalation of low concentration (3.5%) hydrogen; Japanese Patent No. 6781485, Example 1; cited from earlier work
[3] = test system: lung function of subject having lung cancer
Description: On Oct. 21, 2020, inhalation of the hydrogen gas was started using a hydrogen gas generator (Jobs-α, hydrogen concentration: about 4% to 5%, the amount of 100% hydrogen to be generated: 200 ml/min) manufactured by MiZ Company Limited (Ofuna, Kamakura). […]

[4] = test system: lung function of subject having lung cancer; conditions: one month from start of inhalation, hydrogen about 1% to 2%, 3 to 6 hours per day
Description: A person had surgery of colorectal cancer in 2018. Thereafter, the person was periodically examined for follow-up. […] From the day of examination, the person was treated with hydrogen gas inhalation for 3 to 6 hours per day using a hydrogen gas generator (Jobs-mini, hydrogen concentration: about 1% to 2%, the amount of 100% hydrogen to be generated: 30 ml/min).

[5] = Week 2, hydrogen about 4% to 5%, at least 3 hours per day
[6] = Week 3, hydrogen about 4% to 5%, at least 3 hours per day

With `[HH]` [hydrogen gas, molecular hydrogen] as the compound, how does the “concentration of hydrogen dissolved in water” value [1] read?
The value was “approximately 1.6 ppm”.

What about the metastasis [2] of the same compound?
The metastasis was “suppressed”.

What about the “tolerability of hydrogen gas inhalation” value ([3]; Week 1, inhalation 5 hours per day, hydrogen concentration about 4% to 5%, person stage IV lung cancer) of the same compound?
The value was “inhaled comfortably with no discomfort”.

What about the “amount of oxygen needed for oxygen inhalation” value [3, 5] of the same compound?
The value was “reduced”.

What about the breathing [3, 5] of the same compound?
The breathing was “became easier”.

And the “lung X-ray image change” value [3, 5]?
The value was “any significant change was not observed”.

What about the state of breathing [3, 5] of the same compound?
The state of breathing was “became better”.

And the “amount of oxygen needed for oxygen inhalation” value [3, 6]?
The value was “reduced compared to that in the previous week”.

What about the “complicating inflammation reaction such as colitis” value [3, 6] of the same compound?
Its value is “improved”.

And the “lung ventilatory function (doctors' determination from CT image and oxygen needed)” value [3, 6]?
The value was “improved compared to that one month ago”.

What about the “shadows derived from pneumonia in chest CT image” value [3, 6] of the same compound?
The value was “completely disappeared”.

What about the breathing function [4] of the same compound?
The breathing function was “normal values again”.

What about the lung capacity [4] of the same compound?
Its lung capacity is “normal values again”.

What about the tumor markers [4] of the same compound?
Its tumor markers is “normal numeric values again”.

What about the “lung cancer at pre-surgery examination” value ([4]; person) of the same compound?
Its value is “disappeared”.
